Measured values from patent publication US20070093520A1, “Method of treatment of diarrhea-predominant irritable bowel syndrome in a subject” (priority 2005, published 2007).

Test system: diarrhea-predominant IBS subjects
Format: in vivo, human
Conditions: Cilansetron 2 mg, N=1454
Experimental: The study was performed in approximately 150 study centers. Approximately 1600 eligible subjects were to be given cilansetron 2 mg TID. At Visit 1, pre-treatment assessments were conducted. […] Subjects were to return to the study site one month later for Visit 3 (Day 31) for their first interim assessment. […] All subjects who discontinued from the study were to have the same post-study assessments required at Visit 7 performed at their early termination visit. […]
Stool specimens were analyzed at every visit for occult blood. An independent GERB had been established to provide advice on GI AEs during the course of the study.
Adverse events were assessed at Baseline, at each clinic visit, and at the end of the study (Month 12 or the early termination visit). All AEs, which occurred during the study were followed up in accordance with good medical practice until resolved or judged no longer clinically significant, or if a condition was chronic, until fully characterized. Adverse events could occur in the specified follow-up period and, regardless of the interval since the last administration of the study medication, were treated in the same manner as an AE which occurred during the treatment with study medication. Each AE was evaluated for duration, severity, seriousness, and causal relationship to the investigational drug. The action taken and the outcome were also recorded.
Specifically, subjects who were lost to follow-up and had no post-Baseline contact with the site were excluded from the Safety population. The subjects who discontinued from the study due to lost to follow-up were identified based on the information collected on the study termination CRF page.
After the pretreatment assessment at Visit 1 (Days […] to −3), subjects were to return to the study site for a Baseline assessment and start the treatment at Visit 2 (Day 1).
For the by time-interval analyses of disposition, prevalence of AEs, and of markedly abnormal and predefined changes in laboratory values, vital signs, and ECGs, the following interval windows were used:
Adverse events that were already present prior to the first dose of cilansetron study medication but increased in severity afterwards were considered as treatment-emergent.
The 5% cutoff point was based on the incidence within higher level terms.
Subjects were counted at most once for each primary system organ class and preferred term. Serious AEs that resolved prior to receiving study medication or occurred more than 30 days after the last dose of study medication were not included in the incidence tables. A listing of all SAEs is presented; SAEs with onset prior to receiving study medication or more than 30 days after discontinuation of study medication were flagged. The listing presents lower level term and preferred term of the SAE, severity, action taken, outcome, and relationship of the SAE, start and stop date of the SAE, study day of onset of the SAE, age, race, and sex.

Cc1nccn1C[C@H]1CCc2c(c3cccc4c3n2CCC4)C1=O [cilansetron, (R)-(−)-4,5,6,8,9,10-hexahydro-10-[(2-methyl-1H-imidazol-1-yl)methyl]-11H-pyrido-[3,2,1-jk]-carbazol-11-one]
4 (<1%) n (%): TEAE incidence: Cystitis NOS | TEAE incidence: Dyspepsia Aggravated | TEAE incidence: Electrocardiogram T Wave Abnormal | TEAE incidence: Gastric Ulcers and Perforation | TEAE incidence: Gastritis Aggravated | TEAE incidence: Herpes Zoster | TEAE incidence: Hyperacidity
12 (<1%) n (%): TEAE incidence: Gastrointestinal Signs and Symptoms NEC
22 (2%) n (%): TEAE incidence: Gastrointestinal Histopathology Procedures
223 (15%) n (%): TEAE incidence: Gastrointestinal and Abdominal Pains (Excl Oral and Throat)
5 (<1%) n (%): TEAE incidence: Cystitis Acute NOS | TEAE incidence: Disturbances in Consciousness NEC | TEAE incidence: Eructation | TEAE incidence: Frequent Bowel Movements
7 (<1%) n (%): TEAE incidence: Electrocardiogram T Wave Inversion
228 (16%) n (%): TEAE incidence: Gastrointestinal Atonic and Hypomotility Disorders NEC
2 (<1%) n (%): TEAE incidence: Carbohydrate Tolerance Analyses (Incl Diabetes) | TEAE incidence: Carpal Tunnel Syndrome | TEAE incidence: Central Nervous system Vascular Disorders NEC | TEAE incidence: Colitis Ischaemic | TEAE incidence: Colonic Polyp | TEAE incidence: Diaphragmatic Hernias | TEAE incidence: Duodenitis | TEAE incidence: Dysgeusia | TEAE incidence: Electrocardiogram Abnormal NOS | TEAE incidence: Eosinophil Percentage Increased | TEAE incidence: Epigastric Discomfort | TEAE incidence: Faeces Discoloured | TEAE incidence: Gastric Erosions | TEAE incidence: Gastric Ulcer | TEAE incidence: Gastrointestinal Disorders NEC | TEAE incidence: Gastrointestinal Mucosal Dystrophies and Secretion Disorders | TEAE incidence: Gastrointestinal Neoplasms NEC | TEAE incidence: Gastrointestinal Pain NOS | TEAE incidence: Glucose Urine Present | TEAE incidence: Halitosis | TEAE incidence: Headache NOS Aggravated | TEAE incidence: Hiatus Hernia | TEAE incidence: Hypoaesthesia | TEAE incidence: Inguinal Hernia NOS | TEAE incidence: Inguinal Hernias
51 (4%) n (%): TEAE incidence: Faeces Abnormal | TEAE incidence: Influenza
25 (2%) n (%): TEAE incidence: Cholesterol Analyses | TEAE incidence: ECG Investigations
18 (1%) n (%): TEAE incidence: Eosinophil Count Increased
21 (1%) n (%): TEAE incidence: Gastrointestinal Spastic and Hypermotility Disorders
73 (5%) n (%): TEAE incidence: Diarrhoea NOS
32 (2%) n (%): TEAE incidence: Faeces Hard
38 (3%) n (%): TEAE incidence: Haemorrhoids and Gastrointestinal Varices (Excl Oesophageal)
59 (4%) n (%): TEAE incidence: Dyspeptic Signs and Symptoms
19 (1%) n (%): TEAE incidence: Gamma-Glutamyltransferase Increased
3 (<1%) n (%): TEAE incidence: Dry Mouth | TEAE incidence: Electrocardiogram St Segment Depression | TEAE incidence: Electrocardiogram St Segment Elevation | TEAE incidence: Faecal Abnormality NOS | TEAE incidence: Gastrointestinal Inflammatory Disorders NEC | TEAE incidence: Herpes Simplex
28 (2%) n (%): TEAE incidence: Dizziness
9 (<1%) n (%): TEAE incidence: Faecal Occult Blood Positive | TEAE incidence: Haemorrhoidal Haemorrhage
8 (<1%) n (%): TEAE incidence: Diarrhoea Aggravated
587 (40%) n (%): TEAE incidence: Gastrointestinal Disorders
30 (2%) n (%): TEAE incidence: Haemorrhoids
104 (7%) n (%): TEAE incidence: Headaches NEC
13 (<1%) n (%): TEAE incidence: Dental Pain and Sensation Disorders | TEAE incidence: Gastritis NOS
50 (3%) n (%): TEAE incidence: Dyspepsia
24 (2%) n (%): TEAE incidence: Gastroenteritis NOS
1 (<1%) n (%): TEAE incidence: Cardiac Enzymes Increased | TEAE incidence: Carotid Artery Atheroma | TEAE incidence: Carotid Artery Stenosis | TEAE incidence: Cellulitis | TEAE incidence: Central Nervous System Haemorrhages and Cerebrovascular Accidents | TEAE incidence: Cerebral Infarction | TEAE incidence: Cervical Root Pain | TEAE incidence: Cervical Spinal Cord and Nerve Root Disorders | TEAE incidence: Colitis NOS | TEAE incidence: Defaecation Urgency | TEAE incidence: Dental Discomfort | TEAE incidence: Diarrhoea Haemorrhagic | TEAE incidence: Duodenal Polyp | TEAE incidence: Duodenal Ulcer | TEAE incidence: Duodenal Ulcers and Perforation | TEAE incidence: Dysphagia | TEAE incidence: Dystonias | TEAE incidence: Electrocardiogram Change NOS | TEAE incidence: Electrocardiogram Pr Interval Prolonged | TEAE incidence: Electrocardiogram Pr Shortened | TEAE incidence: Electrocardiogram Q Waves Normal | TEAE incidence: Electrocardiogram Qt Shortened | TEAE incidence: Electrocardiogram T Wave Amplitude Decreased | TEAE incidence: Epigastric Hernia | TEAE incidence: Facial Cranial Nerve Disorders | TEAE incidence: Facial Palsy | TEAE incidence: Food Poisoning NOS | TEAE incidence: Gamma-Glutamyltransferase Decreased | TEAE incidence: Gastric Polyps | TEAE incidence: Gastrointestinal Dyskinetic Disorders | TEAE incidence: Gastrointestinal Motility Disorder NOS | TEAE incidence: Gingival Disorders NEC | TEAE incidence: Gingivitis | TEAE incidence: Glossitis | TEAE incidence: Haematemesis | TEAE incidence: Haematological Analyses NEC | TEAE incidence: Haemoglobin Decreased | TEAE incidence: Haemorrhoids Aggravated | TEAE incidence: Hiccups | TEAE incidence: Hypersomnia | TEAE incidence: Hypoaesthesia Oral | TEAE incidence: Ileus Paralytic | TEAE incidence: Intercostal Neuralgia | TEAE incidence: Intertrigo Candida
